Measured values taken from ChEMBL document CHEMBL1201862, “PubChem BioAssay data set” (2004).
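A five-concentration, 48-hour dose response in 96-well plates underlies each endpoint, interpolated linearly between surrounding concentrations. GI50: concentration for 50% inhibition of growth.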 Active and inactive are the calls of the source. Cut-off read from the data, not from the text of the source: active = GI50 up to about 1.1 µM and inactive = higher.

How the values were obtained:
Assay in all cases: NCI anticancer screen, dose series, 48 h
[1] = test system: 786-0
[2] = test system: A498
[3] = test system: A549
[4] = test system: ACHN
[5] = test system: CAKI-1
[6] = test system: CCRF-CEM
[7] = test system: COLO 205
[8] = test system: DU-145
[9] = test system: EKVX
[10] = test system: HCC 2998
[11] = test system: HCT-116
[12] = test system: HCT-15
[13] = test system: HL-60
[14] = test system: HOP-62
[15] = test system: HOP-92
[16] = test system: HT-29
[17] = test system: Hs-578T
[18] = test system: IGROV-1
[19] = test system: K562
[20] = test system: KM12
[21] = test system: LOX IMVI
[22] = test system: M14
[23] = test system: MCF7
[24] = test system: MDA-MB-231
[25] = test system: MDA-MB-435
[26] = test system: MDA-N
[27] = test system: MOLT-4
[28] = test system: Malme-3M
[29] = test system: NCI-H226
[30] = test system: NCI-H23
[31] = test system: NCI-H460
[32] = test system: NCI-H522
[33] = test system: NCI/ADR-RES
[34] = test system: OVCAR-3
[35] = test system: OVCAR-4
[36] = test system: OVCAR-5
[37] = test system: OVCAR-8
[38] = test system: PC-3
[39] = test system: RPMI-8226
[40] = test system: RXF 393
[41] = test system: SF-268
[42] = test system: SF-295
[43] = test system: SF-539
[44] = test system: SK-MEL-28
[45] = test system: SK-MEL-2
[46] = test system: SK-MEL-5
[47] = test system: SK-OV-3
[48] = test system: SN12C
[49] = test system: SNB-19
[50] = test system: SNB-75
[51] = test system: SR
[52] = test system: SW-620
[53] = test system: T47D
[54] = test system: TK-10
[55] = test system: U-251
[56] = test system: UACC-257
[57] = test system: UACC-62
[58] = test system: UO-31

**Q.** What does the source list for `CC1(C#N)CC(C)(C)C(/C=C2/CC(C)(C)C(/C=C3/OC(=N)CC3(C)C)=N2)=N1` (configuration not stated)?
**A.** GI50 [1]: 24.9 µM (inactive); GI50 [2]: 10.5 µM (inactive); GI50 [3]: 29.5 µM (inactive); GI50 [4]: 21.3 µM (inactive); GI50 [5]: 40 µM (inactive); GI50 [6]: 32.4 µM (inactive); GI50 [7]: 16.9 µM (inactive); GI50 [8]: 33.7 µM (inactive); GI50 [9]: 21.7 µM (inactive); GI50 [10]: 32.2 µM (inactive); GI50 [11]: 28.9 µM (inactive); GI50 [12]: 17.9 µM; GI50 [13]: 21.9 µM (inactive); GI50 [14]: 23.8 µM (inactive); GI50 [15]: 12 µM (inactive); GI50 [16]: 27.2 µM (inactive); GI50 [17]: 19.2 µM (inactive); GI50 [18]: 17.6 µM (inactive); GI50 [19]: 22.5 µM (inactive); GI50 [20]: 24.2 µM (inactive); GI50 [21]: 36.2 µM (inactive); GI50 [22]: 28.9 µM (inactive); GI50 [23]: 12.3 µM (inactive); GI50 [24]: 33.6 µM (inactive); GI50 [25]: 21.7 µM (inactive); GI50 [26]: 31.4 µM (inactive); GI50 [27]: 28.7 µM (inactive); GI50 [28]: 0.564 µM (active); GI50 [29]: 40.6 µM (inactive); GI50 [30]: 22.8 µM (inactive); GI50 [31]: 15.8 µM (inactive); GI50 [32]: 14.2 µM (inactive); GI50 [33]: 18.2 µM (inactive); GI50 [34]: 20 µM (inactive); GI50 [35]: 20 µM (inactive); GI50 [36]: 80.4 µM (inactive); GI50 [37]: 22.9 µM (inactive); GI50 [38]: 30.6 µM (inactive); GI50 [39]: 20 µM (inactive); GI50 [40]: 15.2 µM (inactive); GI50 [41]: 24.3 µM (inactive); GI50 [42]: 23.7 µM (inactive); GI50 [43]: 62.2 µM (inactive); GI50 [44]: 51.9 µM (inactive); GI50 [45]: 38.7 µM (inactive); GI50 [46]: 16.6 µM (inactive); GI50 [47]: 20.4 µM (inactive); GI50 [48]: 31.9 µM (inactive); GI50 [49]: 32.7 µM (inactive); GI50 [50]: 31 µM (inactive); GI50 [51]: 28.5 µM (inactive); GI50 [52]: 34.4 µM (inactive); GI50 [53]: 22.7 µM (inactive); GI50 [54]: 31 µM (inactive); GI50 [55]: 38.5 µM (inactive); GI50 [56]: 18.8 µM (inactive); GI50 [57]: 20.7 µM (inactive)

**Q.** For `CC1=CC(C)C(C)N(CCNC(=O)Nc2ccccc2)c2ccccc21` (configuration not stated), which GI50 [1] is on record?
**A.** Its GI50 is 30.3 µM (inactive).

**Q.** And the GI50 [2]?
**A.** Its GI50 is 16.2 µM (inactive).

**Q.** What about the GI50 [3] of the same compound?
**A.** Its GI50 is 12 µM (inactive).

**Q.** What about the GI50 [4] of the same compound?
**A.** Its GI50 is 15.8 µM (inactive).

**Q.** And the GI50 [5]?
**A.** Its GI50 is 19.5 µM (inactive).

**Q.** And the GI50 [6]?
**A.** Its GI50 is 20.7 µM (inactive).

**Q.** And the GI50 [7]?
**A.** The GI50 was 16.6 µM (inactive).

**Q.** What about the GI50 [8] of the same compound?
**A.** Its GI50 is 32.7 µM (inactive).

**Q.** And the GI50 [9]?
**A.** Its GI50 is 25.9 µM (inactive).

**Q.** And the GI50 [10]?
**A.** The GI50 was 18.1 µM (inactive).

**Q.** And the GI50 [11]?
**A.** Its GI50 is 13.9 µM (inactive).

**Q.** And the GI50 [12]?
**A.** Its GI50 is 21.9 µM.

**Q.** And the GI50 [14]?
**A.** Its GI50 is 22.2 µM (inactive).

**Q.** And the GI50 [16]?
**A.** Its GI50 is 12 µM (inactive).

**Q.** And the GI50 [17]?
**A.** Its GI50 is 2.33 µM (inactive).

**Q.** And the GI50 [18]?
**A.** Its GI50 is 28.2 µM (inactive).

**Q.** What about the GI50 [19] of the same compound?
**A.** The GI50 was 17.1 µM (inactive).

**Q.** And the GI50 [20]?
**A.** Its GI50 is 26.8 µM (inactive).

**Q.** What about the GI50 [21] of the same compound?
**A.** The GI50 was 6.81 µM (inactive).

**Q.** What about the GI50 [22] of the same compound?
**A.** Its GI50 is 23.8 µM (inactive).

**Q.** What about the GI50 [23] of the same compound?
**A.** Its GI50 is 17.4 µM (inactive).

**Q.** And the GI50 [24]?
**A.** Its GI50 is 13.3 µM (inactive).

**Q.** What about the GI50 [25] of the same compound?
**A.** The GI50 was 25.1 µM (inactive).

**Q.** And the GI50 [26]?
**A.** The GI50 was 22.5 µM (inactive).

**Q.** What about the GI50 [27] of the same compound?
**A.** The GI50 was 20 µM (inactive).

**Q.** And the GI50 [28]?
**A.** The GI50 was 24.6 µM (inactive).

**Q.** And the GI50 [29]?
**A.** Its GI50 is 22.1 µM (inactive).

**Q.** And the GI50 [30]?
**A.** Its GI50 is 17.6 µM (inactive).

**Q.** And the GI50 [31]?
**A.** Its GI50 is 19.8 µM (inactive).

**Q.** And the GI50 [32]?
**A.** The GI50 was 12.1 µM (inactive).

**Q.** What about the GI50 [33] of the same compound?
**A.** The GI50 was 18.2 µM (inactive).

**Q.** And the GI50 [34]?
**A.** The GI50 was 16 µM (inactive).

**Q.** And the GI50 [35]?
**A.** Its GI50 is 27.4 µM (inactive).

**Q.** What about the GI50 [36] of the same compound?
**A.** The GI50 was 19.5 µM (inactive).

**Q.** And the GI50 [37]?
**A.** Its GI50 is 15.5 µM (inactive).

**Q.** What about the GI50 [38] of the same compound?
**A.** The GI50 was 13.2 µM (inactive).

**Q.** And the GI50 [39]?
**A.** The GI50 was 14.6 µM (inactive).

**Q.** What about the GI50 [40] of the same compound?
**A.** Its GI50 is 11.5 µM (inactive).

**Q.** And the GI50 [41]?
**A.** Its GI50 is 27.5 µM (inactive).

**Q.** And the GI50 [42]?
**A.** Its GI50 is 10 µM (inactive).

**Q.** What about the GI50 [43] of the same compound?
**A.** Its GI50 is 21.4 µM (inactive).

**Q.** And the GI50 [44]?
**A.** The GI50 was 28.6 µM (inactive).

**Q.** And the GI50 [45]?
**A.** The GI50 was 23.1 µM (inactive).

**Q.** What about the GI50 [46] of the same compound?
**A.** The GI50 was 14.1 µM (inactive).

**Q.** And the GI50 [47]?
**A.** The GI50 was 19.1 µM (inactive).

**Q.** What about the GI50 [48] of the same compound?
**A.** The GI50 was 25.9 µM (inactive).

**Q.** And the GI50 [49]?
**A.** The GI50 was 20.3 µM (inactive).

**Q.** What about the GI50 [50] of the same compound?
**A.** Its GI50 is 27.3 µM (inactive).

**Q.** What about the GI50 [51] of the same compound?
**A.** Its GI50 is 16.3 µM (inactive).

**Q.** What about the GI50 [52] of the same compound?
**A.** Its GI50 is 26.5 µM (inactive).

**Q.** And the GI50 [53]?
**A.** Its GI50 is 21.3 µM (inactive).

**Q.** What about the GI50 [54] of the same compound?
**A.** The GI50 was 20.9 µM (inactive).

**Q.** And the GI50 [56]?
**A.** The GI50 was 13.7 µM (inactive).

**Q.** And the GI50 [57]?
**A.** The GI50 was 13.6 µM (inactive).

**Q.** What about the GI50 [58] of the same compound?
**A.** The GI50 was 27.2 µM (inactive).
